Data from ChEMBL document CHEMBL1126347, “Competitive NMDA antagonist that base their activity on a unique conformational effect” (Bioorg Med Chem Lett, 1992).

Molecular target: Glutamate NMDA receptor
Test: The compound was tested for NMDA antagonist activity against [3H]-CGS- 19755 binding in rat cortex preparation

Compound | Ki
O=C(O)[C@@H]1NCCC[C@@H]1C(O)CP(=O)(O)O (stereo not given in full) | 106 nM
O=C(O)[C@@H]1C[C@H](CP(=O)(O)O)CCN1 (single isomer, unassigned) [SELFOTEL] | 40 nM
O=C(CP(=O)(O)O)[C@H]1CCCN[C@H]1C(=O)O (stereo in doubt; 14) | 64 nM
O=C(CP(=O)(O)O)[C@H]1CCCN[C@H]1C(=O)O (stereo in doubt; 1) | 69 nM
O=C(CP(=O)(O)O)[C@H]1CCCN[C@H]1C(=O)O (stereo in doubt; 15) | > 1000 nM
